Test system: SW1271 complex spheroids with HUVEC/MSC, growth, % test/control
Experiment: Anticancer human tumor SW1271 cell line growth inhibition [AhR];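 further: spheroids exposed to agents for 7 days before readout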
Conditions: for IC50: curve of first compound; for viability, T/C: stronger effect = lower value
Summary of the method: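 Agents were dosed in half-log steps down from roughly clinical Cmax, or from 10 microM where Cmax was unknown, alone and with AhR antagonists. Read-out: percent test/control growth of tumor spheroids containing HUVEC and MSC stromal cells.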

[1] = second compound 0.1 µM, first compound 0.0316 µM
[2] = second compound 0.1 µM, first compound 0.1 µM
[3] = second compound 0.316 µM, first compound 0.0316 µM
[4] = second compound 0.316 µM, first compound 0.1 µM
[5] = second compound 1 µM, first compound 0.0316 µM
[6] = second compound 1 µM, first compound 0.1 µM
[7] = second compound 3.16 µM, first compound 0.0316 µM
[8] = second compound 3.16 µM, first compound 0.1 µM
[9] = second compound 10 µM, first compound 0.0316 µM
[10] = second compound 10 µM, first compound 0.1 µM

In the case of Nc1ncn(C2CC(O)C(CO)S2)c(=O)n1 (stereo not given) + Cc1cncc(-c2nc(NCCc3c[nH]c4ccccc34)c3ncn(C(C)C)c3n2)c1, the IC50 (second compound 0.1 µM) is reported as > 300 nM, the IC50 (second compound 0.316 µM) is reported as > 300 nM and the IC50 (second compound 1 µM) is reported as > 300 nM. The IC50 (second compound 3.16 µM) was > 300 nM, the IC50 (second compound 10 µM) was < 0.949 nM and the viability, T/C (second compound 0.1 µM, first compound 0.000949 µM) was 73.1%. It also gave a viability, T/C (second compound 0.1 µM, first compound 0.003 µM) of 93.7%, a viability, T/C (second compound 0.1 µM, first compound 0.00949 µM) of 97.1% and a viability, T/C (second compound 0.1 µM, first compound 0.03 µM) of 90.9%. For the same compound, the viability, T/C (second compound 0.1 µM, first compound 0.0949 µM) was 99.6%, the viability, T/C (second compound 0.1 µM, first compound 0.3 µM) was 98.5% and the viability, T/C (second compound 0.316 µM, first compound 0.000949 µM) was 94.2%. For the same compound, the viability, T/C (second compound 0.316 µM, first compound 0.003 µM) was 84.2%, the viability, T/C (second compound 0.316 µM, first compound 0.00949 µM) was 81.8% and the viability, T/C (second compound 0.316 µM, first compound 0.03 µM) was 84.8%. The viability, T/C (second compound 0.316 µM, first compound 0.0949 µM) was 101%, the viability, T/C (second compound 0.316 µM, first compound 0.3 µM) was 90.9% and the viability, T/C (second compound 1 µM, first compound 0.000949 µM) was 93.8%. The viability, T/C (second compound 1 µM, first compound 0.003 µM) was 104%, the viability, T/C (second compound 1 µM, first compound 0.00949 µM) was 104% and the viability, T/C (second compound 1 µM, first compound 0.03 µM) was 98.7%. For the same compound, the viability, T/C (second compound 1 µM, first compound 0.0949 µM) was 96.9%, the viability, T/C (second compound 1 µM, first compound 0.3 µM) was 90.5% and the viability, T/C (second compound 3.16 µM, first compound 0.000949 µM) was 94.1%. It also gave a viability, T/C (second compound 3.16 µM, first compound 0.003 µM) of 86.4%, a viability, T/C (second compound 3.16 µM, first compound 0.00949 µM) of 86% and a viability, T/C (second compound 3.16 µM, first compound 0.03 µM) of 82.3%. The viability, T/C (second compound 3.16 µM, first compound 0.0949 µM) was 74.2%, the viability, T/C (second compound 3.16 µM, first compound 0.3 µM) was 78.4% and the viability, T/C (second compound 10 µM, first compound 0.000949 µM) was 45.5%. It also gave a viability, T/C (second compound 10 µM, first compound 0.003 µM) of 44.8%, a viability, T/C (second compound 10 µM, first compound 0.00949 µM) of 45.6% and a viability, T/C (second compound 10 µM, first compound 0.03 µM) of 39.8%. For the same compound, the viability, T/C (second compound 10 µM, first compound 0.0949 µM) was 49.3% and the viability, T/C (second compound 10 µM, first compound 0.3 µM) was 43.9%.
For Cn1ncnc1C1c2n[nH]c(=O)c3cc(F)cc(c23)NC1c1ccc(F)cc1 (stereo not given) + Cc1ccccc1N=Nc1ccc(NC(=O)c2ccnn2C)c(C)c1, the IC50 (second compound 0.1 µM) was > 100 nM, the IC50 (second compound 0.316 µM) was > 100 nM and the IC50 (second compound 1 µM) was > 100 nM. For the same compound, the IC50 (second compound 3.16 µM) was > 100 nM, the IC50 (second compound 10 µM) was > 100 nM and the viability, T/C (second compound 0.1 µM, first compound 0.000316 µM) was 118%. It also gave a viability, T/C (second compound 0.1 µM, first compound 0.001 µM) of 120%, a viability, T/C (second compound 0.1 µM, first compound 0.00316 µM) of 133% and a viability, T/C (second compound 0.1 µM, first compound 0.01 µM) of 109%. The viability, T/C [1] was 117%, the viability, T/C [2] was 116% and the viability, T/C (second compound 0.316 µM, first compound 0.000316 µM) was 124%. For the same compound, the viability, T/C (second compound 0.316 µM, first compound 0.001 µM) was 127%, the viability, T/C (second compound 0.316 µM, first compound 0.00316 µM) was 109% and the viability, T/C (second compound 0.316 µM, first compound 0.01 µM) was 118%. It also gave a viability, T/C [3] of 121%, a viability, T/C [4] of 108% and a viability, T/C (second compound 1 µM, first compound 0.000316 µM) of 105%. The viability, T/C (second compound 1 µM, first compound 0.001 µM) was 93.8%, the viability, T/C (second compound 1 µM, first compound 0.00316 µM) was 117% and the viability, T/C (second compound 1 µM, first compound 0.01 µM) was 117%. It also gave a viability, T/C [5] of 99.3%, a viability, T/C [6] of 114% and a viability, T/C (second compound 3.16 µM, first compound 0.000316 µM) of 96.1%. The viability, T/C (second compound 3.16 µM, first compound 0.001 µM) was 127%, the viability, T/C (second compound 3.16 µM, first compound 0.00316 µM) was 124% and the viability, T/C (second compound 3.16 µM, first compound 0.01 µM) was 122%. For the same compound, the viability, T/C [7] was 97.5%, the viability, T/C [8] was 131% and the viability, T/C (second compound 10 µM, first compound 0.000316 µM) was 118%. For the same compound, the viability, T/C (second compound 10 µM, first compound 0.001 µM) was 124%, the viability, T/C (second compound 10 µM, first compound 0.00316 µM) was 110% and the viability, T/C (second compound 10 µM, first compound 0.01 µM) was 94.5%. For the same compound, the viability, T/C [9] was 90.5% and the viability, T/C [10] was 82.9%.
In the case of NS(=O)(=O)OCC1CC(n2ccc3c(NC4CCc5ccccc54)ncnc32)CC1O (stereo not given) + CC(CO)NC(=O)c1cc(-c2ccc(Cl)cc2)nn(-c2cnn(C)c2)c1=O, the IC50 (second compound 0.1 µM) is reported as 3420 nM, the IC50 (second compound 0.316 µM) is reported as 2910 nM and the IC50 (second compound 1 µM) is reported as 3160 nM. For the same compound, the IC50 (second compound 3.16 µM) was > 10000 nM, the IC50 (second compound 10 µM) was > 10000 nM and the viability, T/C [1] was 112%. The viability, T/C [2] was 133%, the viability, T/C (second compound 0.1 µM, first compound 0.316 µM) was 96.5% and the viability, T/C (second compound 0.1 µM, first compound 1 µM) was 65.9%. For the same compound, the viability, T/C (second compound 0.1 µM, first compound 3.16 µM) was 44.6%, the viability, T/C (second compound 0.1 µM, first compound 10 µM) was 51.8% and the viability, T/C [3] was 127%. It also gave a viability, T/C [4] of 115%, a viability, T/C (second compound 0.316 µM, first compound 0.316 µM) of 92.5% and a viability, T/C (second compound 0.316 µM, first compound 1 µM) of 58.5%. For the same compound, the viability, T/C (second compound 0.316 µM, first compound 3.16 µM) was 47.3%, the viability, T/C (second compound 0.316 µM, first compound 10 µM) was 49.7% and the viability, T/C [5] was 125%. For the same compound, the viability, T/C [6] was 127%, the viability, T/C (second compound 1 µM, first compound 0.316 µM) was 118% and the viability, T/C (second compound 1 µM, first compound 1 µM) was 69.2%. It also gave a viability, T/C (second compound 1 µM, first compound 3.16 µM) of 48.2%, a viability, T/C (second compound 1 µM, first compound 10 µM) of 50.6% and a viability, T/C [7] of 133%. It also gave a viability, T/C [8] of 129%, a viability, T/C (second compound 3.16 µM, first compound 0.316 µM) of 108% and a viability, T/C (second compound 3.16 µM, first compound 1 µM) of 69.2%. It also gave a viability, T/C (second compound 3.16 µM, first compound 3.16 µM) of 54%, a viability, T/C (second compound 3.16 µM, first compound 10 µM) of 59.3% and a viability, T/C [9] of 86.2%. The viability, T/C [10] was 104%, the viability, T/C (second compound 10 µM, first compound 0.316 µM) was 103% and the viability, T/C (second compound 10 µM, first compound 1 µM) was 76%. The viability, T/C (second compound 10 µM, first compound 3.16 µM) was 62.6% and the viability, T/C (second compound 10 µM, first compound 10 µM) was 63.6%.

Reference: PubChem BioAssay AID1919017 (Molecular Pharmacology Branch, DTP, NCI, 2023)
